# Read-outs that look alike come from different tables or passages of the source. Positions of bridges follow the written chain, without caps; N, C: chain ends. Residues, ends and D or L forms follow the SMILES beside them.
# Legend:
# [1] = tested on: formalin pain model in male CD-1 mice; conditions: in vivo
# [2] = tested on: locomotor activity in male CD-1 mice; conditions: 5 mg/kg s.c.
# [3] = target: T1, hNav1.3 (Homo sapiens, UniProt Q9NY46); experiment: cell-based; conditions: IonWorks Quattro, read-out: IWQ Use Nav1.3
# T1 sequence (Q9NY46 whole entry, looked up): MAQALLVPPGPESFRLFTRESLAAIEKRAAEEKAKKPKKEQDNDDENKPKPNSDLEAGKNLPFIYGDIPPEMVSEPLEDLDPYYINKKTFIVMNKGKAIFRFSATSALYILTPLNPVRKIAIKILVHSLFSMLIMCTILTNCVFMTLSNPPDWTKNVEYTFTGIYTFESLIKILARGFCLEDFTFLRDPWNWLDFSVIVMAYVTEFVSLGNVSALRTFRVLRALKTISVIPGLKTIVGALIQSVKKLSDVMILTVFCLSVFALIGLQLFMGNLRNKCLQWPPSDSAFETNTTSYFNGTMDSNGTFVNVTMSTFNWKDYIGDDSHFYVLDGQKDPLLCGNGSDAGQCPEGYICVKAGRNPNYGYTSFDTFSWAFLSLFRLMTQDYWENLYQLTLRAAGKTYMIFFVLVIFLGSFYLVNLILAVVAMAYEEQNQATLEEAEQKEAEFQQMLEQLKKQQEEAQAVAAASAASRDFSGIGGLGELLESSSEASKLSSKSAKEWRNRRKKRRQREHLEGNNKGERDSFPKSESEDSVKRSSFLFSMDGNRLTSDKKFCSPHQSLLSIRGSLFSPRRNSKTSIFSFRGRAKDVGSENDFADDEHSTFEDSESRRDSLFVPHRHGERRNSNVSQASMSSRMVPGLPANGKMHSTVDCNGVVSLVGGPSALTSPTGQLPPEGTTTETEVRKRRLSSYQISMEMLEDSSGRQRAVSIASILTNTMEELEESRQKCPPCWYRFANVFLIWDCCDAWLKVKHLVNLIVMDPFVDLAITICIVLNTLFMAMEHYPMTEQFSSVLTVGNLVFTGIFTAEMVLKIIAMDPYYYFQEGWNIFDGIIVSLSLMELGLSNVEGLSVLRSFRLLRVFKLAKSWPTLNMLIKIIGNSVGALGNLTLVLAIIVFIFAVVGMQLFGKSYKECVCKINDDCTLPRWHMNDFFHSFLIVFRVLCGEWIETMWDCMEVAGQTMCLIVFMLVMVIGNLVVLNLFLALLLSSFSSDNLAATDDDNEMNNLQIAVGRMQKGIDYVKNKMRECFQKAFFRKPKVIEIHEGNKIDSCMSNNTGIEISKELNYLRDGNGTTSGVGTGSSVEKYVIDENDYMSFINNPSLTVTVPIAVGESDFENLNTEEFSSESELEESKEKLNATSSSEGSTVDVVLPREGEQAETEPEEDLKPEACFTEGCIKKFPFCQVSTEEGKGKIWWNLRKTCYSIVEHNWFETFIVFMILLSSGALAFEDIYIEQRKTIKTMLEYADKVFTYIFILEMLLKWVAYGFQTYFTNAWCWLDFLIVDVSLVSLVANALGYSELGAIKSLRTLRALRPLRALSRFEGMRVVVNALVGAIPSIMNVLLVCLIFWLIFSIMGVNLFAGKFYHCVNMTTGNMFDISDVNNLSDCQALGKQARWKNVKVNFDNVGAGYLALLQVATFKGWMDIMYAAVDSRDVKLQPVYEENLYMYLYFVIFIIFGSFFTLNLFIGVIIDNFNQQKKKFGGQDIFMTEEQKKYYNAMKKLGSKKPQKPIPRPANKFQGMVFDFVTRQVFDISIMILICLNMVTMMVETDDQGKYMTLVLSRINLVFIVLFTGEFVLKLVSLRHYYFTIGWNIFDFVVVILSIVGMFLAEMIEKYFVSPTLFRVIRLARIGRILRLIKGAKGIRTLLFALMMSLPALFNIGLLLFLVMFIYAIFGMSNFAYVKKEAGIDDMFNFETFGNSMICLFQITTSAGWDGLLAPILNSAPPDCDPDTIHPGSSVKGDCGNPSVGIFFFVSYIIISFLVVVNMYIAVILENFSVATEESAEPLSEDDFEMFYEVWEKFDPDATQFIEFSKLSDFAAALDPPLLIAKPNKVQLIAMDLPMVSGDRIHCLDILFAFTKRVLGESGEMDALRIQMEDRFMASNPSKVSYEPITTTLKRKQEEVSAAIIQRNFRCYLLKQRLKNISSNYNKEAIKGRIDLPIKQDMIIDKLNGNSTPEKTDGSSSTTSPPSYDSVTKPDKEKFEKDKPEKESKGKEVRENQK
# [4] = mouse plasma, 37° C.
# [5] = target: T2, hNav1.7 (Homo sapiens, UniProt Q15858); experiment: cell-based; format: cell-based; conditions: IonWorks Quattro, Use; read-out: IWQ Use Nav1.7
# [6] = target: T3, hNav1.5 (Homo sapiens, UniProt Q14524); experiment: cell-based
# T3 sequence (Q14524 whole entry, looked up): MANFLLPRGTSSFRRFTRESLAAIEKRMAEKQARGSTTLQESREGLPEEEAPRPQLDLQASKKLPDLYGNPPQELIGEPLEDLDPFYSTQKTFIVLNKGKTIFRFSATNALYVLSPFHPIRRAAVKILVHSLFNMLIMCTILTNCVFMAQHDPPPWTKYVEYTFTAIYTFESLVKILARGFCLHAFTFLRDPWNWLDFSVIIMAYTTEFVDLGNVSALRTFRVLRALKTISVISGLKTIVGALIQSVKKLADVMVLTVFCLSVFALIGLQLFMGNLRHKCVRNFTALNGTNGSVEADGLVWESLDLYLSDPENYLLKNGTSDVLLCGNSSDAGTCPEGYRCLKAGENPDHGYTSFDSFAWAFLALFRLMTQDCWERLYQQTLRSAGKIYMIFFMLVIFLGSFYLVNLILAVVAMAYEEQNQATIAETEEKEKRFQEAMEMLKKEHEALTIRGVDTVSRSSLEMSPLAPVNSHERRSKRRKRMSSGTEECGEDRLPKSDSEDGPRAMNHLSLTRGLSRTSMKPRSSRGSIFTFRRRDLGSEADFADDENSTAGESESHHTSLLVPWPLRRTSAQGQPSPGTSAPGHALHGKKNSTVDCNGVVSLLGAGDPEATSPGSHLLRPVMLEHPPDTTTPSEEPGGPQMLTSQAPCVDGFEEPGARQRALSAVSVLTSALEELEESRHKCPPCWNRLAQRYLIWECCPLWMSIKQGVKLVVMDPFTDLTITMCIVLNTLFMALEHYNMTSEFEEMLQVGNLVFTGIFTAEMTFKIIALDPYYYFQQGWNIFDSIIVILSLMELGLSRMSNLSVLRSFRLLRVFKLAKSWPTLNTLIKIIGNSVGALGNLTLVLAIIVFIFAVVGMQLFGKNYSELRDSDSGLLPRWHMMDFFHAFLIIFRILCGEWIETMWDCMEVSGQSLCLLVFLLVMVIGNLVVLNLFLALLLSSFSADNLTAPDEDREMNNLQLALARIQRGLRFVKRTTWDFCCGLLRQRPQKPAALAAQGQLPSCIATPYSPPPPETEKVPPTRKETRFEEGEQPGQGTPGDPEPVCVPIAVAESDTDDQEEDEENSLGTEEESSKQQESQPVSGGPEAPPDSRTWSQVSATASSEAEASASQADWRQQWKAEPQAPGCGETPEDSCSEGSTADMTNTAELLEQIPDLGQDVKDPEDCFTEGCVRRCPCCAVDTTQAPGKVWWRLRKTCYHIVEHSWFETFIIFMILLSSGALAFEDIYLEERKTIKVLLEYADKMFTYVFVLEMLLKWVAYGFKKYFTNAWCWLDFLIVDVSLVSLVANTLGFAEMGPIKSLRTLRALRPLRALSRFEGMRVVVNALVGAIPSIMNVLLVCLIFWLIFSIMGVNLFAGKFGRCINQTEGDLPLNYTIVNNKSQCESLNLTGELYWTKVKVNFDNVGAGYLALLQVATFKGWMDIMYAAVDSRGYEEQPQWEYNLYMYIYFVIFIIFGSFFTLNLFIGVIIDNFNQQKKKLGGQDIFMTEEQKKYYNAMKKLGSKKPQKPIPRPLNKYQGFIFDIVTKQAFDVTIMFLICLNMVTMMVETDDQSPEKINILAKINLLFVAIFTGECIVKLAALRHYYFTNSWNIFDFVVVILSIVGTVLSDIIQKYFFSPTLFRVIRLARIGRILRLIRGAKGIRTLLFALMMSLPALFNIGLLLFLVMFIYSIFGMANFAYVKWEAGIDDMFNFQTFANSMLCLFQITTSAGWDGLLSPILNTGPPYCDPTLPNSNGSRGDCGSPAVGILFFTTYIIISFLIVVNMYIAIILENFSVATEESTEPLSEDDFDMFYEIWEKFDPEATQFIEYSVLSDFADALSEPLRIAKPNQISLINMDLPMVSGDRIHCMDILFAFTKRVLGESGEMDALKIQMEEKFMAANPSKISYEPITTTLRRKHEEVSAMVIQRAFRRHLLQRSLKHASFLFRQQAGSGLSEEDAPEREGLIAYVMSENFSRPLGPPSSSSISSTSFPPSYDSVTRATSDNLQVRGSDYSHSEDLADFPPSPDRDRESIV
# [7] = human plasma, 37° C.
# [8] = in vitro; conditions: human, plasma
# [9] = target: T1, hNav1.3; experiment: cell-based; format: cell-based
# [10] = in vitro; conditions: mouse, plasma
# [11] = target: T2, hNav1.7; experiment: cell-based; conditions: read-out: Nav1.7 Use IC50
# [12] = target: T3, hNav1.5; experiment: cell-based; remark: listed apart in the source
# [13] = target: hNav1.4 (Homo sapiens, UniProt P35499); experiment: cell-based
# [14] = incubation time 0 hr (normalisation point)
compound,measurement,setting,value
"CC[C@H](C)[C@@H]1NC(=O)[C@@H]2CSSC[C@@H]3NC(=O)[C@H](C(C)C)NC(=O)[C@H](CC(C)C)NC(=O)[C@H](CC(N)=O)NC(=O)[C@@H]4CCCN4C(=O)[C@H](CCCNC(=N)N)NC(=O)[C@H](CSSC[C@H](NC(=O)[C@@H](N)CC(=O)O)C(=O)N[C@@H](CC(C)C)C(=O)NCC(=O)N[C@@H](Cc4ccccc4)C(=O)N[C@@H](CCSC)C(=O)N[C@@H](CCCNC(=N)N)C(=O)N[C@@H](CCCCN)C(=O)N2)NC(=O)[C@H](CSSC[C@@H](C(=O)N[C@@H](CCCCN)C(=O)N[C@@H](Cc2ccc(O)cc2)C(=O)N[C@H](C(=O)N[C@@H](Cc2ccccc2)C(N)=O)C(C)C)NC(=O)[C@H](CCC(=O)O)NC(=O)[C@H](CCCCN)NC(=O)[C@H](Cc2c[nH]cn2)NC(=O)[C@H]([C@@H](C)O)NC(=O)[C@H](CCCNC(=N)N)NC(=O)[C@H](CO)NC3=O)NC(=O)[C@H](CCCCN)NC(=O)[C@H](CC(=O)O)NC(=O)[C@H](CC(N)=O)NC(=O)[C@H](CC(=O)O)NC(=O)[C@@H]2CCCN2C1=O [SEQ ID NO: 30, [Glu29]GpTx-1(1-34)] (H-DCLGFMRKCIPDNDKCCRPNLVCSRTHKECKYVF-NH2; disulfide 2-17, 9-23, 16-30)","time spent lifting/licking, second phase",[1]; mouse,no significant effect
"CC[C@H](C)[C@@H]1NC(=O)[C@@H]2CSSC[C@@H]3NC(=O)[C@H](C(C)C)NC(=O)[C@H](CC(C)C)NC(=O)[C@H](CC(N)=O)NC(=O)[C@@H]4CCCN4C(=O)[C@H](CCCNC(=N)N)NC(=O)[C@H](CSSC[C@H](NC(=O)[C@@H](N)CC(=O)O)C(=O)N[C@@H](CC(C)C)C(=O)NCC(=O)N[C@@H](Cc4ccccc4)C(=O)N[C@@H](CCSC)C(=O)N[C@@H](CCCNC(=N)N)C(=O)N[C@@H](CCCCN)C(=O)N2)NC(=O)[C@H](CSSC[C@@H](C(=O)N[C@@H](CCCCN)C(=O)N[C@@H](Cc2ccc(O)cc2)C(=O)N[C@H](C(=O)N[C@@H](Cc2ccccc2)C(N)=O)C(C)C)NC(=O)[C@H](CCC(=O)O)NC(=O)[C@H](CCCCN)NC(=O)[C@H](Cc2cnc[nH]2)NC(=O)[C@H]([C@@H](C)O)NC(=O)[C@H](CCCNC(=N)N)NC(=O)[C@H](CO)NC3=O)NC(=O)[C@H](CCCCN)NC(=O)[C@H](CC(=O)O)NC(=O)[C@H](CC(N)=O)NC(=O)[C@H](CC(=O)O)NC(=O)[C@@H]2CCCN2C1=O [SEQ ID NO: 30, [Glu29]GpTx-1(1-34)] (H-DCLGFMRKCIPDNDKCCRPNLVCSRTHKECKYVF-NH2; disulfide 2-17, 9-23, 16-30)",terminal exposure (peptide plasma concentration at 45 min post formalin injection),"[1]; male, CD-1, mouse, sc, 5 mg/kg, […]",0.502 ± 0.271 µM
same,locomotor activity in the open field analysis,[2],no significant effect
same,terminal exposure (peptide plasma concentration at 2 h post peptide injection),[2]; later studies,0.771 ± 0.272 µM
same,IC50,"[3]; Table 24, use, […]",16100 nM
"CSCC[C@@H]1NC(=O)[C@H](Cc2ccccc2)NC(=O)CNC(=O)[C@H](CC(C)C)NC(=O)[C@@H](NC(=O)[C@@H](N)CC(=O)O)CSSC[C@@H]2NC(=O)[C@@H]3CSSC[C@@H](C(=O)N[C@@H](CCCCN)C(=O)N[C@@H](Cc4ccc(O)cc4)C(=O)N[C@H](C(=O)N[C@@H](Cc4ccccc4)C(N)=O)C(C)C)NC(=O)[C@H](Cc4c[nH]c5ccccc45)NC(=O)[C@H](CCCCN)NC(=O)[C@H](Cc4c[nH]cn4)NC(=O)[C@H]([C@@H](C)O)NC(=O)[C@H](CCCNC(=N)N)NC(=O)[C@H](CO)NC(=O)[C@H](CSSC[C@H](NC(=O)[C@H](CCCCN)NC(=O)[C@H](CCCNC(=N)N)NC1=O)C(=O)N[C@@H](Cc1cccc4ccccc14)C(=O)N1CCC[C@H]1C(=O)N[C@@H](CC(=O)O)C(=O)N[C@@H](CC(N)=O)C(=O)N[C@@H](CC(=O)O)C(=O)N[C@@H](CCCCN)C(=O)N3)NC(=O)[C@H](C(C)C)NC(=O)[C@H](CC(C)C)NC(=O)[C@H](CC(N)=O)NC(=O)[C@@H]1CCCN1C(=O)[C@H](CCCNC(=N)N)NC2=O [SEQ ID NO: 78, [1-Nal10]GpTx-1(1-34)]",% peptide remaining,[4]; [14],100%
same,% peptide remaining,[4]; incubation time 2 hr,98%
same,% peptide remaining,[4]; incubation time 4 hr,92%
same,% peptide remaining,[4]; incubation time 8 hr,92%
same,% peptide remaining,[4]; incubation time 24 hr,88%
same,IC50,[5],150 nM
same,IC50,[3]; Use,210 nM
same,IC50,[6]; IWQ Use Nav1.5 (μM),10 µM
same,% peptide remaining,[7]; [14],100%
same,% peptide remaining,[7]; incubation time 2 hr,99%
same,% peptide remaining,[7]; incubation time 4 hr,93%
same,% peptide remaining,[7]; incubation time 8 hr,97%
same,% peptide remaining,[7]; incubation time 24 hr,82%
CC[C@H](C)[C@@H]1NC(=O)[C@@H]2CSSC[C@@H]3NC(=O)[C@H](C(C)C)NC(=O)[C@H](CC(C)C)NC(=O)[C@H](CC(N)=O)NC(=O)[C@@H]4CCCN4C(=O)[C@H](CCCNC(=N)N)NC(=O)[C@H](CSSC[C@H](NC(=O)[C@H](CC(=O)O)NC(C)=O)C(=O)N[C@@H](CC(C)C)C(=O)NCC(=O)N[C@@H](Cc4ccccc4)C(=O)N[C@@H](CCSC)C(=O)N[C@@H](CCCNC(=N)N)C(=O)N[C@@H](CCCCN)C(=O)N2)NC(=O)[C@H](CSSC[C@@H](C(=O)N[C@@H](CCCCN)C(=O)N[C@@H](Cc2ccc(O)cc2)C(=O)N[C@H](C(=O)N[C@@H](Cc2ccccc2)C(N)=O)C(C)C)NC(=O)[C@H](Cc2c[nH]c4ccccc24)NC(=O)[C@H](CCCCN)NC(=O)[C@H](Cc2cnc[nH]2)NC(=O)[C@H]([C@@H](C)O)NC(=O)[C@H](CCCNC(=N)N)NC(=O)[C@H](CO)NC3=O)NC(=O)[C@H](CCCCN)NC(=O)[C@H](CC(=O)O)NC(=O)[C@H](CC(N)=O)NC(=O)[C@H](CC(=O)O)NC(=O)[C@@H]2CCCN2C1=O [SEQ ID NO: 132],remaining at 2 h,[8],100%
same,remaining at 4 h,[8],104%
same,remaining at 8 h,[8],101%
same,remaining at 24 h,[8],97%
same,% peptide remaining,[4]; [14],100%
same,IC50,[9]; Nav1.3 Use IC50,84 nM
same,remaining at 2 h,[10],105%
same,remaining at 4 h,[10],103%
same,remaining at 8 h,[10],103%
same,remaining at 24 h,[10],106%
same,IC50,"[3]; clamped to −110 mV, depolarized to −10 mV, 5 min after compound, n=2",220 nM
same,IC50,[6]; IWQ Use Nav1.5,12.7 µM
same,% peptide remaining,[7]; [14],100%
"CC[C@H](C)[C@@H]1NC(=O)[C@@H]2CSSC[C@@H]3NC(=O)[C@H](C(C)C)NC(=O)[C@H](CC(C)C)NC(=O)[C@H](CC(N)=O)NC(=O)[C@@H]4CCCN4C(=O)[C@H](CCCNC(=N)N)NC(=O)[C@H](CSSC[C@H](NC(=O)[C@@H](N)CC(=O)O)C(=O)N[C@@H](CC(C)C)C(=O)NCC(=O)N[C@@H](Cc4ccccc4)C(=O)N[C@@H](CCSC)C(=O)N[C@@H](CCCNC(=N)N)C(=O)N[C@@H](CCCCN)C(=O)N2)NC(=O)[C@H](CSSC[C@@H](C(=O)N[C@@H](CCCCN)C(=O)N[C@@H](Cc2ccc(O)cc2)C(=O)N[C@H](C(=O)N[C@@H](Cc2ccccc2)C(N)=O)C(C)C)NC(=O)[C@H](CCC(=O)O)NC(=O)[C@H](CCCCN)NC(=O)[C@H](Cc2c[nH]cn2)NC(=O)[C@H]([C@@H](C)O)NC(=O)[C@H](CCCNC(=N)N)NC(=O)[C@H](CO)NC3=O)NC(=O)[C@H](CCCCN)NC(=O)[C@H](CC(=O)O)NC(=O)[C@H](CC(N)=O)NC(=O)[C@H](CC(=O)O)NC(=O)[C@@H]2CCCN2C1=O [[Glu29]GpTx-1(1-34)] (H-DCLGFMRKCIPDNDKCCRPNLVCSRTHKECKYVF-NH2; disulfide 2-17, 9-23, 16-30)",paw edema caused by formalin injection,[1]; mouse,Neither the peptide nor the morphine control significantly reduced
same,"time spent lifting/licking, second phase",[1]; mouse,did not demonstrate a significant reduction
"CN1CC[C@]23c4c5ccc(O)c4O[C@H]2[C@@H](O)C=C[C@H]3[C@H]1C5 [morphine, reference compound]","time spent lifting and/or licking the affected paw, first phase (0-5 minutes post formalin injection)",[1]; mouse,Neither the peptide nor the morphine positive control significantly reduced
"[Phe6,Atz(500 Da EtO-PEG*-{[Phe6,Atz13*]GpTx-1(1-34)})13]GpTx-1(1-34) [Homodimeric Conjugate 2]",Nav1.3/Nav1.7 Use,[9],2.4
same,IC50,[9]; read-out: Nav1.3 Use IC50,46 nM
same,IC50,[11],19 nM
same,Nav1.5/Nav1.3 Use,[12],19
same,Nav1.5/Nav1.7 Use,[12],45
same,IC50,[12]; read-out: Nav1.5 Use IC50,863 nM
same,Nav1.4/Nav1.3 Use,[13],7
same,Nav1.4/Nav1.7 Use,[13],16
same,IC50,[13]; read-out: Nav1.4 Use IC50,299 nM
